Drawing on patent US20090036448A1, “PYRIMIDINE DERIVATIVES AND METHODS OF TREATMENT RELATED TO THE USE THEREOF” (TAISHO PHARMECUTICAL CO., LTD., priority 2004, published 2009), this text covers class for 37 compounds.

For the experiment, the target named is MCH receptor (Homo sapiens, UniProt Q99705). In words: Receptor binding assay with Radiolabelled MCH Ligand. The arrangement: expressed in transfected cells; host or cells: 293 cells (human kidney, ATCC), transient transfection; crude membranes. The conditions noted are these: class by percent of control at 10^-7 M or IC50. The gist of the method: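 This was a filtration radioligand displacement assay: compounds, first tested at 1 and 0.1 μM and then over a range, inhibited binding of a labelled MCH ligand to transfected 293-cell membranes at room temperature for 60–120 min. Specific binding excluded a cold-MCH nonspecific signal. Ki was derived from IC50 via Cheng-Prusoff, using an independently measured KD.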
MCH receptor, sequence (Q99705 whole entry): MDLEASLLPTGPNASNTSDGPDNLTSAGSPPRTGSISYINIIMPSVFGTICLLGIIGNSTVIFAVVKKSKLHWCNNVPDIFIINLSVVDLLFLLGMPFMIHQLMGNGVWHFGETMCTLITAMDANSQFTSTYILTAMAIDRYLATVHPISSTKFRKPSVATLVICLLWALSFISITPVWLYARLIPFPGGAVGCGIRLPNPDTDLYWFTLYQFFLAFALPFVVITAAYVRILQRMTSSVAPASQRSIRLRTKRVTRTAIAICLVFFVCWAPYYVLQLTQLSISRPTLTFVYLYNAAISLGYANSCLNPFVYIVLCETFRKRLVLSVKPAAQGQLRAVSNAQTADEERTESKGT
In the case of `CC(=O)c1ccc(OCC(=O)N[C@H]2CC[C@@H](Nc3cc(N(C)C)nc(C)n3)CC2)cc1` [compound 275], the class was 3 (Class 3: The value of percent of control at 10^−7 M was more than 60% or the value of IC50 was more than 200 nM.). On to `Cc1nc(N[C@H]2CC[C@@H](NC(=O)COc3ccccc3)CC2)cc(N(C)C)n1` [compound 234], for which the class is reported as 3 (Class 3: The value of percent of control at 10^−7 M was more than 60% or the value of IC50 was more than 200 nM.). For `CCOc1ccccc1NC(=O)N[C@H]1CC[C@@H](Nc2cc(N(C)C)nc(C)n2)CC1` [compound 428], the class is reported as 3 (Class 3: The value of percent of control at 10^−7 M was more than 60% or the value of IC50 was more than 200 nM.). Then `CCc1cccc(C)c1NC(=O)N[C@H]1CC[C@@H](Nc2cc(N(C)C)nc(C)n2)CC1` [compound 421], with 3 (Class 3: The value of percent of control at 10^−7 M was more than 60% or the value of IC50 was more than 200 nM.); and `Cc1nc(N[C@H]2CC[C@@H](NC(=O)[C@@H](C)c3cccc(C(=O)c4ccccc4)c3)CC2)cc(N(C)C)n1` [compound 309], with 3 (Class 3: The value of percent of control at 10^−7 M was more than 60% or the value of IC50 was more than 200 nM.). Then `Cc1nc(N[C@H]2CC[C@@H](NS(=O)(=O)Cc3ccccc3[N+](=O)[O-])CC2)cc(N(C)C)n1` [compound 475], with 3 (Class 3: The value of percent of control at 10^−7 M was more than 60% or the value of IC50 was more than 200 nM.).

For `Cc1nc(N[C@H]2CC[C@@H](NS(=O)(=O)c3sc4ccc(Cl)cc4c3C)CC2)cc(N(C)C)n1` [compound 511], the class was 3 (Class 3: The value of percent of control at 10^−7 M was more than 60% or the value of IC50 was more than 200 nM.). As to `Cc1nc(N[C@H]2CC[C@@H](NCCOc3ccccc3)CC2)cc(N(C)C)n1` [compound 381], the class is 3 (Class 3: The value of percent of control at 10^−7 M was more than 60% or the value of IC50 was more than 200 nM.). As to `Cc1nc(N[C@H]2CC[C@@H](NC(=S)Nc3ccc(I)cc3)CC2)cc(N(C)C)n1` [compound 449], the class is 3 (Class 3: The value of percent of control at 10^−7 M was more than 60% or the value of IC50 was more than 200 nM.).

Regarding `COc1ccc(Oc2ccc([N+](=O)[O-])cc2CN[C@H]2CC[C@@H](Nc3cc(N(C)C)nc(C)n3)CC2)cc1` [compound 377], the class is given as 3 (Class 3: The value of percent of control at 10^−7 M was more than 60% or the value of IC50 was more than 200 nM.). Then `CCCCCCCCOC(=O)N[C@H]1CC[C@@H](Nc2cc(N(C)C)nc(C)n2)CC1` [compound 458], with 3 (Class 3: The value of percent of control at 10^−7 M was more than 60% or the value of IC50 was more than 200 nM.). Then `Cc1cc(C)c(NC(=O)N[C@H]2CC[C@@H](Nc3cc(N(C)C)nc(C)n3)CC2)c(C)c1` [compound 417], with 3 (Class 3: The value of percent of control at 10^−7 M was more than 60% or the value of IC50 was more than 200 nM.); and `Cc1nc(N[C@H]2CC[C@@H](NC(=O)Nc3c(C)cc(Br)cc3C)CC2)cc(N(C)C)n1` [compound 416, N-(4-bromo-2,6-dimethylphenyl)-N′-(cis-4-{[6-(dimethylamino)-2-methylpyrimidin-4-yl]amino}cyclohexyl)urea], with 1 (Class 1: The value of percent of control at 10^−7 M was less than 40% or the value of IC50 was less than 50 nM.); and `CCCCCCCc1ccc(-c2ccc(C(=O)N[C@H]3CC[C@@H](Nc4cc(N(C)C)nc(C)n4)CC3)cc2)cc1` [compound 334], with 3 (Class 3: The value of percent of control at 10^−7 M was more than 60% or the value of IC50 was more than 200 nM.). Then `COc1ccc(CCCC(=O)N[C@H]2CC[C@@H](Nc3cc(N(C)C)nc(C)n3)CC2)cc1OC` [compound 340], with 3 (Class 3: The value of percent of control at 10^−7 M was more than 60% or the value of IC50 was more than 200 nM.); and `Cc1nc(N[C@H]2CC[C@@H](NC(=O)c3ccc(C(C)(C)C)cc3)CC2)cc(N(C)C)n1` [compound 202], with 3 (Class 3: The value of percent of control at 10^−7 M was more than 60% or the value of IC50 was more than 200 nM.); and `Cc1nc(N[C@H]2CC[C@@H](NC(=O)COc3ccc(Cl)cc3)CC2)cc(N(C)C)n1` [compound 209], with 3 (Class 3: The value of percent of control at 10^−7 M was more than 60% or the value of IC50 was more than 200 nM.). Consider `Cc1nc(N[C@H]2CC[C@@H](NS(=O)(=O)c3cc(Cl)c(Oc4ccc([N+](=O)[O-])cc4Cl)c(Cl)c3)CC2)cc(N(C)C)n1` [compound 495], for which the class is 3 (Class 3: The value of percent of control at 10^−7 M was more than 60% or the value of IC50 was more than 200 nM.). On to `Cc1nc(N[C@H]2CC[C@@H](NC(=O)c3ccc(OC(F)(F)F)cc3)CC2)cc(N(C)C)n1` [compound 248], for which the class was 3 (Class 3: The value of percent of control at 10^−7 M was more than 60% or the value of IC50 was more than 200 nM.). Regarding `Cc1nc(N[C@H]2CC[C@@H](NCc3cc(C(C)(C)C)nn3Cc3ccc(Cl)cc3Cl)CC2)cc(N(C)C)n1` [compound 409], the class is given as 3 (Class 3: The value of percent of control at 10^−7 M was more than 60% or the value of IC50 was more than 200 nM.). Next, `Cc1nc(N[C@H]2CC[C@@H](NCc3ccc(F)c(Cl)c3)CC2)cc(N(C)C)n1` [compound 401]: 3 (Class 3: The value of percent of control at 10^−7 M was more than 60% or the value of IC50 was more than 200 nM.); `Cc1nc(N[C@H]2CC[C@@H](NC(=O)NCc3ccc(F)cc3)CC2)cc(N(C)C)n1` [compound 413]: 3 (Class 3: The value of percent of control at 10^−7 M was more than 60% or the value of IC50 was more than 200 nM.). Next, `Cc1nc(N[C@H]2CC[C@@H](NC(=O)c3ccc4c(c3)C(=O)c3ccccc3-4)CC2)cc(N(C)C)n1` [compound 324]: 3 (Class 3: The value of percent of control at 10^−7 M was more than 60% or the value of IC50 was more than 200 nM.); `Cc1nc(N[C@H]2CC[C@@H](NC(=O)Oc3ccc(Br)cc3)CC2)cc(N(C)C)n1` [compound 455, 4-bromophenyl (cis-4-{[6-(dimethylamino)-2-methylpyrimidin-4-yl]amino}cyclohexyl)carbamate]: 3 (Class 3: The value of percent of control at 10^−7 M was more than 60% or the value of IC50 was more than 200 nM.); `Cc1nc(N[C@H]2CC[C@@H](NC(=O)Nc3c(F)cc(Br)cc3Br)CC2)cc(N(C)C)n1` [compound 431]: 3 (Class 3: The value of percent of control at 10^−7 M was more than 60% or the value of IC50 was more than 200 nM.). `Cc1nc(N[C@H]2CC[C@@H](NCc3ccc4ccccc4c3)CC2)cc(N(C)C)n1` [compound 378]: the class was 3 (Class 3: The value of percent of control at 10^−7 M was more than 60% or the value of IC50 was more than 200 nM.). For `CCCc1ccc(S(=O)(=O)N[C@H]2CC[C@@H](Nc3cc(N(C)C)nc(C)n3)CC2)cc1` [compound 487], the class is on record as 3 (Class 3: The value of percent of control at 10^−7 M was more than 60% or the value of IC50 was more than 200 nM.). Then `Cc1nc(N[C@H]2CC[C@@H](NC(=O)CCCc3ccc([N+](=O)[O-])cc3)CC2)cc(N(C)C)n1` [compound 298], with 3 (Class 3: The value of percent of control at 10^−7 M was more than 60% or the value of IC50 was more than 200 nM.); and `Cc1nc(N[C@H]2CC[C@@H](NS(=O)(=O)c3cccc(F)c3)CC2)cc(N(C)C)n1` [compound 503], with 3 (Class 3: The value of percent of control at 10^−7 M was more than 60% or the value of IC50 was more than 200 nM.). Next, `Cc1nc(N[C@H]2CC[C@@H](NC(=O)CN3C(=O)c4ccccc4C3=O)CC2)cc(N(C)C)n1` [compound 274]: 3 (Class 3: The value of percent of control at 10^−7 M was more than 60% or the value of IC50 was more than 200 nM.).

For the compound `Cc1nc(N[C@H]2CC[C@@H](NC(=O)C3CC(=O)N(Cc4cccs4)C3)CC2)cc(N(C)C)n1` (relative stereo) [compound 282], the class is 3 (Class 3: The value of percent of control at 10^−7 M was more than 60% or the value of IC50 was more than 200 nM.). For the compound `Cc1nc(N[C@H]2CC[C@@H](NCc3scc(S(=O)(=O)c4ccc(Cl)cc4)c3C)CC2)cc(N(C)C)n1` [compound 367], the class was 3 (Class 3: The value of percent of control at 10^−7 M was more than 60% or the value of IC50 was more than 200 nM.). For `COC(=O)[C@H](Cc1ccccc1)NC(=O)N[C@H]1CC[C@@H](Nc2cc(N(C)C)nc(C)n2)CC1` (relative stereo) [compound 411], the class was 3 (Class 3: The value of percent of control at 10^−7 M was more than 60% or the value of IC50 was more than 200 nM.). Then `Cc1nc(N[C@H]2CC[C@@H](NC(=O)C3C[C@@H](c4ccccc4)CC[C@H]3C(=O)c3ccccc3)CC2)cc(N(C)C)n1` (stereo partly shown) [compound 351], with 3 (Class 3: The value of percent of control at 10^−7 M was more than 60% or the value of IC50 was more than 200 nM.); and `Cc1nc(N[C@H]2CC[C@@H](NCc3cnn(-c4ccccc4)c3C(F)(F)F)CC2)cc(N(C)C)n1` [compound 384], with 3 (Class 3: The value of percent of control at 10^−7 M was more than 60% or the value of IC50 was more than 200 nM.). Regarding `Cc1nc(N[C@H]2CC[C@@H](NS(=O)(=O)c3cccc4ccccc34)CC2)cc(N(C)C)n1` [compound 505], the class is listed as 3 (Class 3: The value of percent of control at 10^−7 M was more than 60% or the value of IC50 was more than 200 nM.).

Turning to `Cc1nc(N[C@H]2CC[C@@H](NCc3ccc(F)c(F)c3)CC2)cc(N(C)C)n1` [compound 369], the class was 3 (Class 3: The value of percent of control at 10^−7 M was more than 60% or the value of IC50 was more than 200 nM.).
